Here are results for one compound from patent US20240327427A1, “NEW COMPOUNDS FOR THE TREATMENT OF ALZHEIMER'S DISEASE” (Icahn School of Medicine at Mount Sinai, priority 2020, published 2024).

SMILES strings stand for the structures. “Also recorded” adds a separate entry of the source.

For experiment [1], the system named is Vha68-1, Vha68-2 (fly orthologs of ATP6V1A). Kind of experiment: Vha68-1/Vha68-2 mRNA levels in fly brains after drug feeding. The format is in vivo, Drosophila. Conditions: fed. Here is the method: Since Vha68-2 decreased more dramatically compared to Vha68-1 in Aβ42 fly brains (FIG. 4Q), an inference was made that NCH-51 treatment counteracts pathological reductions in Vha68-2 levels. […] More than 25 flies for each genotype were collected and frozen. Heads were mechanically isolated, and total RNA was extracted using TRIzol Reagent (Thermo Fisher Scientific) according to the manufacturer's protocol with an additional centrifugation step (16,000×g for 10 min) to remove cuticle membranes prior to the addition of chloroform. Total RNA was reverse-transcribed using PrimeScript RT-PCR kit (TaKaRa Bio), and qRT-PCR was performed using Thunderbird SYBR qPCR Mix (Toyobo) on a CFX96 real time PCR detection system (Bio-Rad Laboratories). The average threshold cycle value was calculated from at least three replicates per sample. Expression of genes of interest was standardized relative to GAPDH1. Primer sequences are provided below. Flies were fed with the food containing 10 μM or 50 μM NCH51 or vehicle (final concentration 0.02% dimethyl sulfoxide) from the day after eclosion. These food vials were changed every 3-4 days.

Experiment [2] has as its system Aβ42. Kind of experiment: Aβ42 levels in fly brains (western blot). In kind it is in vivo, Drosophila. Conditions: Aβ42 flies, fed. Here is the method:
Aβ42 flies were treated with 0, 10, or 50 μM of NCH-51 during aging to examine its effects on neurodegeneration. […] Western blotting was performed as described previously. To detect human Aβ42, ten fly heads for each genotype were homogenized in Tris-Glycine SDS sample buffer, and the same amount of the lysate was loaded to 18% Tris-Glycine gels and transferred to nitrocellulose membrane. The membranes were boiled in PBS for 3 min, blocked with 5% nonfat dry milk, blotted with the anti-AD 6E10 antibody (Signet, Covance), incubated with appropriate secondary antibody and developed using ECL Western Blotting Detection Reagents (GE Healthcare Life Sciences). The membranes were also probed with anti-tubulin (Sigma-Aldrich) as the loading control in each experiment. To detect human tau, ten fly heads for each genotype were homogenized in Tris-Glycine SDS sample buffer, and the same amount of the lysate was loaded to each lane of 10% Tris-Glycine gels and transferred to nitrocellulose membrane. The membranes were blocked with 5% nonfat dry milk, blotted with the antibodies described below, incubated with the appropriate secondary antibody and developed using ECL Prime Western Blotting Detection Reagent (GE Healthcare Life Sciences). […] Imaging was performed with ImageQuant LAS 4000 (GE Healthcare Life Sciences), and the signal intensity was quantified using Image J (NIH).
On the technique in general: In western blotting, separated proteins are transferred to a membrane and probed.

The test system of experiment [3] is ATP6V1A. The experiment is described as follows: ATP6V1A mRNA (qRT-PCR) and protein (western blot) levels in hiPSC-derived NGN2 neurons (iNs). The format is cell-based, human. On the procedure:
To verify this discovery, the inventors measured the transcriptional and translational levels of ATP6V1A in D21 iNs treated with the 3 HDAC inhibitors at a series of concentrations between 1 and 30 μM.
CRISPR inhibition (CRISPRi) was used to repress endogenous ATP6V1A in hiPSC-derived NGN2 neurons. […] Next, the inventors investigated whether LQ081-166 rescued the phenotypes of ATP6V1A deficit and reduced neuronal activity.
Quantitative reverse transcription PCR (qRT-PCR) was performed as previously described. Specifically, cell cultures were harvested with Trizol and total RNA extraction was carried out following the manufacturer's instructions. Quantitative transcript analysis was performed using a QuantStudio 7 Flex Real-Time PCR System with the Power SYBR Green RNA-to-Ct Real-Time qPCR Kit (all Thermo Fisher Scientific). Total RNA template (25 ng per reaction) was added to the PCR mix, including primers listed below. qPCR conditions were as follows; 48° C. for 30 min, 95° C. for 10 min followed by 40 cycles (95° C. for 15 s, 60° C. for 60 s). All qPCR data is collected from at least 3 independent biological replicates of one experiment. Data analyses were performed using GraphPad PRISM 6 software.
Cells were rinsed with ice-cold phosphate-buffered saline (PBS), pelleted, and lyzed in RIPA Lysis and Extraction Buffer (Thermo Fisher Scientific, #89900) containing Halt™ Protease and Phosphatase Inhibitor Cocktail (Thermo Fisher Scientific, #78440). Alternatively, MSBB BM36 brain samples were homogenized with similar methods. Samples were sonicated for 1 minute then centrifuged at 13,000× rpm for 10 min. The supernatant was collected, and total protein concentration was determined using Quick Start™ Bradford Protein Assay (Bio-Rad, 5000201) following the manufacturer's instructions.
Images were captured and quantified using the Odyssey® Imaging Systems (LI-COR. Inc.).
(§1) A stock solution of LQ081-166 (molecular weight: 452.63) at 3 mM is prepared in dimethyl sulfoxide (DMSO). Once prepared, aliquot the stock solution into 100 μL amounts and store at −80° C. Avoid repeated freeze-thaw cycles. The stock is diluted 1000× into neuronal medium to obtain 3 μM for assays. After 24-hour treatment, RNA was extracted from cells for quantitative PCR. In the MEA assay, LQ081-166 was added on neuronal differentiation day 14. Replace with medium containing drug or vehicle every 2-3 days until the final recording day.
Background: Quantitative PCR measures a nucleic acid by following its amplification.

Experiment [4] has as its system hiPSC-derived NGN2 neurons. The experiment is described as follows: Multi-electrode array (MEA) neuronal activity. In kind it is cell-based, human. Conditions: 3 μM NCH-51. Here is the method: To evaluate electrical activity of NGN2-neurons by MEA, density-matched isogenic NGN2-neuronal populations, co-cultured with pHAs, were prepared as described above. Specifically, at day 3, pHAs were split as 17,000 cells/well in a Matrigel-coated 48W MEA plate (Axion Biosystems, M768-tMEA-48W) and maintained as above. At day 7, NGN2-neurons were detached, spun down and seeded on the pHA culture. Outer space of each well in the plate was filled up with autoclaved/deionized water to minimize the evaporation of marginal wells (“edge effect”) during long-term culture. Half volume of neuronal medium (supplemented with 2% FBS) was replaced with fresh medium including 200 nM Ara-C from day 9 until the end of MEA recording. Electrical activity of neurons was recorded daily during day 14-24. On the recording day, the plate was loaded into the Axion Maestro MEA reader (Axion Biosystems). Recording was performed via AxiS 2.4 for 10 mins. Quantitative analysis of the recording was exported as a Microsoft excel sheet. Data were analyzed using GraphPad PRISM 6 software.
as §1

With `CC(C)C(=O)SCCCCCCC(=O)Nc1nc(-c2ccccc2)cs1` [NCH-51], in experiment [1] (Aβ42 fly brains, dose-dependent), the “mRNA levels of Vha68-2” value is listed as “significantly increased; also recorded: increased mRNA levels of Vha68-2”. For the same compound, in experiment [1] (control flies), the “mRNA levels of Vha68-1 or Vha68-2” value is given as “did not increase”. The “Aβ42 levels in fly brains” value in experiment [2] is “did not affect”. The “ATP6V1A mRNA level” value in experiment [3] (3 μM, 24-hr, particularly in ATP6V1A KD iNs, P<0.05) was “dramatically elevates”. Further, the “transcriptional and translational levels of ATP6V1A” value in experiment [3] (D21 iNs, concentrations between 1 and 30 μM) is reported as “effectively increased ATP6V1A levels”. In experiment [3] (iNs, 3 μM), the ATP6V1A protein yield result was “significantly increase the protein yield”. Also, the ATP6V1A protein level entry in experiment [3] (iNs, 3 μM, P<0.05) was “similarly increased”. The “restoration of neuronal activity (MEA)” value in experiment [4] (ATP6V1A KD iNs) was “partially restoring neuronal activity”. The “neuronal activity (MEA spike events)” value in experiment [4] (iNs) is recorded as “potent activator of neuronal activity”.
